The source made the active and inactive calls. The rule behind the calls is not given here.
Columns and labels:
Mus musculus [1] = organism: Mus musculus; test: Percent inhibition of nitric oxide generation in both lipopolysaccharide and interferon gamma induced mouse macrophage RAW 264.7 cells; type: functional
Mus musculus [2] = organism: Mus musculus; test: Percent inhibition of nitric oxide generation in both lipopolysaccharide and interferon gamma induced mouse macrophage RAW 264.7 cells at the concentration of 10 uM.; type: functional
Mus musculus [3] = organism: Mus musculus; test: Compound was tested for the inhibitory activity against mouse macrophage RAW 264.7 cells at the concentration of 50 uM; Inactive; type: functional, cell-based
Mus musculus [4] = organism: Mus musculus; test: Compound was tested for cytotoxicity against mouse macrophage RAW 264.7 cells using MTT assay; Inactive; type: functional, cell-based

Compound	Activity (Mus musculus [3])	Activity (Mus musculus [4])	further results
CC1(C)OC1COc1c2occc2cc2ccc(=O)oc12 (stereo not drawn) [HERACLENINPRANGENIN]			Inhibition (Mus musculus [1]): 36.9%
C=CC(C)(C)Oc1c2c(c(C(C)(C)C=C)c3oc(=O)ccc13)OC(C)(C)C=C2	inactive		inhibition at 10 µM (Mus musculus [2]): 91.2%
C=CC(C)(C)c1cc2c(O)c3c(c(C(C)(C)C=C)c2oc1=O)OC(C)(C)C=C3 [CLAUSARIN]	inactive		inhibition at 10 µM (Mus musculus [2]): 91.2%
C=CC(C)(C)c1c2c(c(O)c3ccc(=O)oc13)C=CC(C)(C)O2 [NORDENTATIN]	inactive		inhibition at 10 µM (Mus musculus [2]): 91.2%
C=C(COC(=O)CC(C)C)C1OC1c1c(OC)ccc2ccc(=O)oc12 (stereo not drawn)			Inhibition (Mus musculus [1]): 86.1%
C=CCc1c(O)ccc2ccc(=O)oc12		inactive	
C=C1COC2Oc3ccc4ccc(=O)oc4c3C12 (stereo not drawn)		inactive	
COc1ccc2ccc(=O)oc2c1C1=C(C)COC1=O		inactive	
CC(C)=CCOc1ccc2ccc(=O)oc2c1	inactive		
O=c1ccc2c(O)cc(O)cc2o1		inactive	
CC(C)=CCc1c(O)ccc2ccc(=O)oc12	inactive		
C=C(C)[C@H]1O[C@@H]1c1c(OC)ccc2ccc(=O)oc12		inactive	
C=CCOc1ccc2ccc(=O)oc2c1		inactive	
CC(C)=CCC/C(C)=C/CC/C(C)=C/COc1ccc2ccc(=O)oc2c1	inactive		
CC(C)(O)[C@@H]1Cc2c(ccc3ccc(=O)oc23)O1		inactive	
